Patent US20210024583A1, “COMPOSITIONS AND METHODS FOR PEPTIDE MEDIATED OLIGONUCLEOTIDE DELIVERY TO THE CENTRAL NERVOUS SYSTEM” (The Regents of the University of California, priority 2019, published 2021)
“Also recorded” adds a separate entry of the source. Where no end group is shown, it is not given here.

How the values were obtained:
[1] = Brain distribution of FITC labeled siαSyn after single i.p. injection (co-labeling NeuN, GFAP); format: in vivo, mouse
Experimental: To determine the co-localization between fluorescein isothiocyanate (FITC)-siαSyn and cellular markers, double labeling experiments were performed as previously described (44, 45). […] vibratome sections were immunolabeled with the rabbit polyclonal antibody against α-synuclein (Chemicon, affinity purified polyclonal), NeuN (neuronal marker, Millipore) or GFAP (astroglial marker, Chemicon) and the immunoreactive structures were detected with the Tyramide Signal Amplification™-Direct (Red) system (NEN Life Sciences) while the siRNA was directly visualized by the appended FITC label. Sections were imaged with a Zeiss 63X™ (N.A. 1.4) objective on an Axiovert 35™ microscope (Zeiss) with an attached MRC1024™ LSCM system (BioRad).
4 hours after injection, mice were sacrificed, whole brain removed and fixed. (A,B) Sections were stained for the neuronal marker NeuN and the nuclear stain DAPI and then visualized for co-localization with the FITC labeled siRNA. (D,E) Sections were stained for the astrocytic marker GFAP and the nuclear stain DAPI and then visualized for co-localization with the FITC labeled siRNA.

α-synuclein = α-synuclein levels and co-localization in cortex after single i.p. FITC siαSyn:peptide; format: in vivo, mouse; details: single i.p. injection, 4 hours

FITC labeled siRNA delivered to NeuN positive neurons, compared with C2-9r peptide ([1]; α-syn tg mice, 4 hours after i.p. injection): significantly greater
co-localization of FITC label of siαSyn with αSyn expressing cells (α-synuclein): co-localized with αSyn expressing cells
Sequence: RLTRKRGLKLAGGGGGRRRRRRRRR [ApoB^11]
co-labeling of FITC labeled siαSyn RNA with astrocyte marker GFAP ([1]; 4 hours after i.p. injection): co-labeled with the astrocyte marker, GFAP in the cell body but not in the processes
cellular localization of FITC labeled siαSyn in brain (co-labeling with NeuN, GFAP) ([1]; 4 hours after single i.p. injection, 50 μg, siRNA conjugated to the named peptide): delivered siαSyn RNA to neuronal cells; also recorded: primarily to neurons and only to a lesser extent the astrocytes
